{"source": "patent US20100298141A1", "about": "“SUBSTITUTED PYRIDINE N-OXIDE HERBICIDES” (E. I. DU PONT DE NEMOURS AND COMPANY, priority 2007, published 2010)", "assay_in_all_cases": "Test F preemergence test", "conditions_in_all_cases": "scale 0 to 100", "key": {"[1]": {"tested_on": "kochia", "format": "in vivo, Kochia scoparia", "in_short": "(§1)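 Greenhouse screen: test chemical in surfactant-containing non-phytotoxic solvent applied preemergence to sown seeds or postemergence to sugarcane plants; after 14 to 21 days each species scored visually versus controls.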"}, "[2]": {"tested_on": "bermudagrass", "format": "in vivo, Cynodon dactylon", "in_short": "as §1"}, "[3]": {"tested_on": "pitted morningglory", "format": "in vivo, Ipomoea lacunosa", "in_short": "as §1"}, "[4]": {"tested_on": "common groundsel", "format": "in vivo, Senecio vulgaris", "in_short": "as §1"}, "[5]": {"tested_on": "goosegrass", "format": "in vivo, Eleusine indica", "in_short": "as §1"}, "[6]": {"tested_on": "dallisgrass", "format": "in vivo, Paspalum dilatatum", "in_short": "as §1"}, "[7]": {"tested_on": "barnyardgrass", "format": "in vivo, Echinochloa crus-galli", "in_short": "as §1"}, "[8]": {"tested_on": "naked crabgrass", "format": "in vivo, Digitaria nuda", "in_short": "as §1"}, "[9]": {"tested_on": "common ragweed", "format": "in vivo, Ambrosia elation", "in_short": "as §1"}, "[10]": {"tested_on": "itchgrass", "format": "in vivo, Rottboellia cochinchinensis", "in_short": "as §1"}, "[11]": {"tested_on": "guineagrass", "format": "in vivo, Panicum maximum", "in_short": "as §1"}, "[12]": {"tested_on": "johnsongrass", "format": "in vivo, Sorghum halepense", "in_short": "as §1"}, "[13]": {"tested_on": "broadleaf signalgrass", "format": "in vivo, Brachiaria platyphylla", "in_short": "as §1"}, "[14]": {"tested_on": "Virginia dayflower", "format": "in vivo, Commelina virginica", "in_short": "as §1"}, "[15]": {"tested_on": "large crabgrass", "format": "in vivo, Digitaria sanguinalis", "in_short": "as §1"}, "[16]": {"tested_on": "quackgrass", "format": "in vivo, Elytrigia repens", "in_short": "as §1"}, "[17]": {"tested_on": "prickly sida", "format": "in vivo, Sida spinosa", "in_short": "as §1"}, "[18]": {"tested_on": "Italian ryegrass", "format": "in vivo, Lolium multiflorum", "in_short": "as §1"}, "[19]": {"tested_on": "mustard", "format": "in vivo, Brassica nigra", "in_short": "as §1"}, "[20]": {"tested_on": "Surinam grass", "format": "in vivo, Brachiaria decumbens", "in_short": "as §1"}, "[21]": {"tested_on": "common purslane", "format": "in vivo, Portulaca oleracea", "in_short": "as §1"}}, "data": [{"smiles": "Cc1cc[n+]([O-])c(S(=O)(=O)Cc2c(C(F)(F)F)nn(C)c2Cl)c1", "note": "[Compound 19]", "values": [{"measurement": "Kochia plant response rating", "setting": "[1]; 62 g ai/ha, Preemergence", "value": 0}, {"measurement": "Kochia plant response rating", "setting": "[1]; 125 g ai/ha, preemergence", "value": 100}, {"measurement": "Plant response rating, Kochia", "setting": "[1]; Preemergence, 16 g ai/ha", "value": 0}, {"measurement": "Plant response rating, Kochia", "setting": "[1]; Preemergence, 31 g ai/ha", "value": 0}, {"measurement": "Bermudagrass plant response rating", "setting": "[2]; 62 g ai/ha, Preemergence", "value": 60}, {"measurement": "Bermudagrass plant response rating", "setting": "[2]; 125 g ai/ha, preemergence", "value": 95}, {"measurement": "Plant response rating, Bermudagrass", "setting": "[2]; Preemergence, 16 g ai/ha", "value": 0}, {"measurement": "Plant response rating, Bermudagrass", "setting": "[2]; Preemergence, 31 g ai/ha", "value": 40}, {"measurement": "Morningglory plant response rating", "setting": "[3]; 62 g ai/ha, Preemergence", "value": 0}, {"measurement": "Morningglory plant response rating", "setting": "[3]; 125 g ai/ha, preemergence", "value": 0}, {"measurement": "Plant response rating, Morningglory", "setting": "[3]; Preemergence, 16 g ai/ha", "value": 0}, {"measurement": "Plant response rating, Morningglory", "setting": "[3]; Preemergence, 31 g ai/ha", "value": 0}, {"measurement": "Groundsel plant response rating", "setting": "[4]; 62 g ai/ha, Preemergence", "value": 15}, {"measurement": "Groundsel plant response rating", "setting": "[4]; 125 g ai/ha, preemergence", "value": 70}, {"measurement": "Plant response rating, Groundsel", "setting": "[4]; Preemergence, 16 g ai/ha", "value": 0}, {"measurement": "Plant response rating, Groundsel", "setting": "[4]; Preemergence, 31 g ai/ha", "value": 0}, {"measurement": "Goosegrass plant response rating", "setting": "[5]; 62 g ai/ha, Preemergence", "value": 90}, {"measurement": "Goosegrass plant response rating", "setting": "[5]; 125 g ai/ha, preemergence", "value": 100}, {"measurement": "Plant response rating, Goosegrass", "setting": "[5]; Preemergence, 16 g ai/ha", "value": 0}, {"measurement": "Plant response rating, Goosegrass", "setting": "[5]; Preemergence, 31 g ai/ha", "value": 75}, {"measurement": "Dallisgrass plant response rating", "setting": "[6]; 62 g ai/ha, Preemergence", "value": 65}, {"measurement": "Dallisgrass plant response rating", "setting": "[6]; 125 g ai/ha, preemergence", "value": 90}, {"measurement": "Plant response rating, Dallisgrass", "setting": "[6]; Preemergence, 16 g ai/ha", "value": 0}, {"measurement": "Plant response rating, Dallisgrass", "setting": "[6]; Preemergence, 31 g ai/ha", "value": 20}, {"measurement": "Barnyardgrass plant response rating", "setting": "[7]; 62 g ai/ha, Preemergence", "value": 90}, {"measurement": "Barnyardgrass plant response rating", "setting": "[7]; 125 g ai/ha, preemergence", "value": 98}, {"measurement": "Plant response rating, Barnyardgrass", "setting": "[7]; Preemergence, 16 g ai/ha", "value": 70}, {"measurement": "Plant response rating, Barnyardgrass", "setting": "[7]; Preemergence, 31 g ai/ha", "value": 80}, {"measurement": "Crabgrass, Naked plant response rating", "setting": "[8]; 62 g ai/ha, Preemergence", "value": 100}, {"measurement": "Crabgrass, Naked plant response rating", "setting": "[8]; 125 g ai/ha, preemergence", "value": 100}, {"measurement": "Plant response rating, Crabgrass, Naked", "setting": "[8]; Preemergence, 16 g ai/ha", "value": 70}, {"measurement": "Plant response rating, Crabgrass, Naked", "setting": "[8]; Preemergence, 31 g ai/ha", "value": 70}, {"measurement": "Ragweed plant response rating", "setting": "[9]; 62 g ai/ha, Preemergence", "value": 50}, {"measurement": "Ragweed plant response rating", "setting": "[9]; 125 g ai/ha, preemergence", "value": 80}, {"measurement": "Plant response rating, Ragweed", "setting": "[9]; Preemergence, 16 g ai/ha", "value": 0}, {"measurement": "Plant response rating, Ragweed", "setting": "[9]; Preemergence, 31 g ai/ha", "value": 25}, {"measurement": "Itchgrass plant response rating", "setting": "[10]; 62 g ai/ha, Preemergence", "value": 25}, {"measurement": "Itchgrass plant response rating", "setting": "[10]; 125 g ai/ha, preemergence", "value": 50}, {"measurement": "Plant response rating, Itchgrass", "setting": "[10]; Preemergence, 16 g ai/ha", "value": 0}, {"measurement": "Plant response rating, Itchgrass", "setting": "[10]; Preemergence, 31 g ai/ha", "value": 0}, {"measurement": "Guineagrass plant response rating", "setting": "[11]; 62 g ai/ha, Preemergence", "value": 100}, {"measurement": "Guineagrass plant response rating", "setting": "[11]; 125 g ai/ha, preemergence", "value": 100}, {"measurement": "Plant response rating, Guineagrass", "setting": "[11]; Preemergence, 16 g ai/ha", "value": 50}, {"measurement": "Plant response rating, Guineagrass", "setting": "[11]; Preemergence, 31 g ai/ha", "value": 80}, {"measurement": "Johnsongrass plant response rating", "setting": "[12]; 62 g ai/ha, Preemergence", "value": 90}, {"measurement": "Johnsongrass plant response rating", "setting": "[12]; 125 g ai/ha, preemergence", "value": 98}, {"measurement": "Plant response rating, Johnsongrass", "setting": "[12]; Preemergence, 16 g ai/ha", "value": 40}, {"measurement": "Plant response rating, Johnsongrass", "setting": "[12]; Preemergence, 31 g ai/ha", "value": 75}, {"measurement": "Signalgrass plant response rating", "setting": "[13]; 62 g ai/ha, Preemergence", "value": 65}, {"measurement": "Signalgrass plant response rating", "setting": "[13]; 125 g ai/ha, preemergence", "value": 95}, {"measurement": "Plant response rating, Signalgrass", "setting": "[13]; Preemergence, 31 g ai/ha", "value": 60}, {"measurement": "Dayflower plant response rating", "setting": "[14]; 62 g ai/ha, Preemergence", "value": 30}, {"measurement": "Dayflower plant response rating", "setting": "[14]; 125 g ai/ha, preemergence", "value": 90}, {"measurement": "Plant response rating, Dayflower", "setting": "[14]; Preemergence, 16 g ai/ha", "value": 0}, {"measurement": "Plant response rating, Dayflower", "setting": "[14]; Preemergence, 31 g ai/ha", "value": 0}, {"measurement": "Crabgrass, Large plant response rating", "setting": "[15]; 62 g ai/ha, Preemergence", "value": 80}, {"measurement": "Crabgrass, Large plant response rating", "setting": "[15]; 125 g ai/ha, preemergence", "value": 95}, {"measurement": "Plant response rating, Crabgrass, Large", "setting": "[15]; Preemergence, 16 g ai/ha", "value": 35}, {"measurement": "Plant response rating, Crabgrass, Large", "setting": "[15]; Preemergence, 31 g ai/ha", "value": 50}, {"measurement": "Quackgrass plant response rating", "setting": "[16]; 62 g ai/ha, Preemergence", "value": 40}, {"measurement": "Quackgrass plant response rating", "setting": "[16]; 125 g ai/ha, preemergence", "value": 60}, {"measurement": "Plant response rating, Quackgrass", "setting": "[16]; Preemergence, 16 g ai/ha", "value": 0}, {"measurement": "Plant response rating, Quackgrass", "setting": "[16]; Preemergence, 31 g ai/ha", "value": 0}, {"measurement": "Prickly Sida plant response rating", "setting": "[17]; 62 g ai/ha, Preemergence", "value": 30}, {"measurement": "Prickly Sida plant response rating", "setting": "[17]; 125 g ai/ha, preemergence", "value": 60}, {"measurement": "Plant response rating, Prickly Sida", "setting": "[17]; Preemergence, 16 g ai/ha", "value": 0}, {"measurement": "Plant response rating, Prickly Sida", "setting": "[17]; Preemergence, 31 g ai/ha", "value": 20}, {"measurement": "Ryegrass, Italian plant response rating", "setting": "[18]; 62 g ai/ha, Preemergence", "value": 50}, {"measurement": "Ryegrass, Italian plant response rating", "setting": "[18]; 125 g ai/ha, preemergence", "value": 65}, {"measurement": "Plant response rating, Ryegrass, Italian", "setting": "[18]; Preemergence, 16 g ai/ha", "value": 0}, {"measurement": "Plant response rating, Ryegrass, Italian", "setting": "[18]; Preemergence, 31 g ai/ha", "value": 10}, {"measurement": "Black Mustard plant response rating", "setting": "[19]; 62 g ai/ha, Preemergence", "value": 100}, {"measurement": "Black Mustard plant response rating", "setting": "[19]; 125 g ai/ha, preemergence", "value": 100}, {"measurement": "Plant response rating, Black Mustard", "setting": "[19]; Preemergence, 16 g ai/ha", "value": 0}, {"measurement": "Plant response rating, Black Mustard", "setting": "[19]; Preemergence, 31 g ai/ha", "value": 20}, {"measurement": "Surinam Grass plant response rating", "setting": "[20]; 62 g ai/ha, Preemergence", "value": 75}, {"measurement": "Surinam Grass plant response rating", "setting": "[20]; 125 g ai/ha, preemergence", "value": 90}, {"measurement": "Plant response rating, Surinam Grass", "setting": "[20]; Preemergence, 31 g ai/ha", "value": 30}, {"measurement": "Purslane plant response rating", "setting": "[21]; 62 g ai/ha, Preemergence", "value": 0}, {"measurement": "Purslane plant response rating", "setting": "[21]; 125 g ai/ha, preemergence", "value": 0}, {"measurement": "Plant response rating, Purslane", "setting": "[21]; Preemergence, 16 g ai/ha", "value": 0}, {"measurement": "Plant response rating, Purslane", "setting": "[21]; Preemergence, 31 g ai/ha", "value": 0}]}]}
